According to patent publication US20260317319A1, “NOVEL ERGOLINES AND METHODS OF TREATING MOOD DISORDERS” (Gilgamesh Pharma Inc., priority 2023, published 2026):
Read-outs that look alike come from different tables or passages of the source.

Columns and labels:
5-HT2B receptor = molecular target: T1, 5-HT2B receptor (Homo sapiens, UniProt P41595); test: cell-based; type: cell-based; settings: Ca2+ flux; for Emax: HEK293, agonist, HEK293, max dose, read-out: 5-HT2B % Act @ Max Dose; for EC50: agonist, HEK293
T1 construct: expressed in transfected cells; host or cells: HEK293, stably transfected
Summary of the method: (§1)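 FLIPR Tetra fluorescence read-out of calcium flux after compound addition. Receptor-expressing stable lines were used (HEK293 for 2A/2B; CHO with Gα15 for 1A), dye-loaded with Fluo-4 Direct and 2.5 mM final probenecid, 50 min at 37 °C.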

5-HT2C receptor = molecular target: T2, 5-HT2C receptor (Homo sapiens, UniProt P28335); test: cell-based; settings: agonist, Ca2+ flux, Eurofins DiscoverX protocol; for Emax: max dose, read-out: 5-HT2C % Act @ Max Dose; for EC50: read-out: 5-HT2C EC50
T2 sequence (P28335 33-458): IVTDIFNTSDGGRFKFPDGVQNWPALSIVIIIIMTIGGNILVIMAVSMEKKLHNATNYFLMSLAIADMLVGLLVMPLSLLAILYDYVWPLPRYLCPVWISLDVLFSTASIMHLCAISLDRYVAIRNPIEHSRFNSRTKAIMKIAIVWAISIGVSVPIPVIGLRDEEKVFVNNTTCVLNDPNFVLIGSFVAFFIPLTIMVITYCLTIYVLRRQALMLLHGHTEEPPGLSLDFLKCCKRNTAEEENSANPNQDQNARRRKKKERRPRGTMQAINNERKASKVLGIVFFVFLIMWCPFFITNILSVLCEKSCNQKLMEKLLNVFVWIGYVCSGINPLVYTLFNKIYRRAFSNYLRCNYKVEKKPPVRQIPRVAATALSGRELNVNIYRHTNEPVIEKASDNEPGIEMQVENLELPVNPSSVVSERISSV

5-HT1A receptor = molecular target: T3, 5-HT1A receptor (Homo sapiens, UniProt P08908); test: cell-based; settings: agonist, Ca2+ flux; for Emax: CHO, CHO cells with Gα15, max dose, read-out: 5-HT1A % Act @ Max Dose; for EC50: CHO cells with Gα15
T3 construct: expressed in transfected cells; host or cells: CHO cells, stably transfected
T3 sequence (P08908 1-422): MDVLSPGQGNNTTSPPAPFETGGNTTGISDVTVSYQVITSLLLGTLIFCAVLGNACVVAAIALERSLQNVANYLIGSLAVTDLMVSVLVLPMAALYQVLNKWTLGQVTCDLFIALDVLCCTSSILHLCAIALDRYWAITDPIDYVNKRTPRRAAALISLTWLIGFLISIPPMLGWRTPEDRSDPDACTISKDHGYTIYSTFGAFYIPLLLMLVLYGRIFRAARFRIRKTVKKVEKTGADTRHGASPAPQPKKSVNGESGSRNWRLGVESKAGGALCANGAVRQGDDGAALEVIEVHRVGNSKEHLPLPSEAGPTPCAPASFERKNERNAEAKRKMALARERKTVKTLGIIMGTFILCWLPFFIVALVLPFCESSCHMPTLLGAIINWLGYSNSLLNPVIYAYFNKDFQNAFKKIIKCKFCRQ
Summary of the method: as §1

5-HT2A receptor [1] = molecular target: T4, 5-HT2A receptor (Homo sapiens, UniProt P28223); test: cell-based; type: cell-based; settings: agonist, beta-arrestin recruitment, max dose; read-out: 5-HT2A Arrestin % Act @ Max Dose
Description: Arrestin Functional Assay at 5-HT2A. Recruitment of beta-arrestin was determined using a PathHunter assay at Eurofins DiscoverX (Fremont, CA) according to their standard protocols. PathHunter GPCR beta-arrestin assays take advantage of DiscoverX's proprietary Enzyme Fragment Complementation technology. The GPCR is fused in frame with a small enzyme donor fragment ProLink™ (PK) and co-expressed in cells stably expressing a fusion protein of beta-arrestin and the larger, N-terminal deletion mutant of beta-galactosidase. Activation of the GPCR (5-HT2A receptor in this case) stimulates binding of beta-arrestin to the PK-tagged GPCR and forces complementation of the two enzyme fragments, resulting in the formation of an active beta-galactosidase enzyme. This interaction leads to an increase in enzyme activity that can be measured using chemiluminescent PathHunter Detection Reagents. Briefly, PathHunter cells expressing 5-HT2A receptors were seeded in a volume of 20 μL into 384-well plates and incubated at 37° C. for the appropriate time prior to testing. […] Plates were then imaged on a microplate reader and the agonist activity was calculated using the following formula: % Activity=100%×(mean RLU of test sample-mean RLU of vehicle control)/(mean MAX control ligand-mean RLU of vehicle control), where RLU=relative light units.

in vitro [2] = type: in vitro ADME, human; settings: HLM 0.50 mg/mL, NADPH 1 mM, 1 μM compound, pH 7.4, 37° C., 60 min; for microsomal CLint / half-life: human, microsomes; for microsomal CLint: read-out: Intrinsic clearance (Clint); for half-life: read-out: half-life (t1/2)
in vitro [3] = type: in vitro ADME, mouse; settings: MLM (male CD-1) 0.50 mg/mL, NADPH 1 mM, 1 μM compound, pH 7.4, 37° C., 60 min; for microsomal CLint / half-life: mouse, microsomes; for microsomal CLint: read-out: Intrinsic clearance (Clint); for half-life: read-out: half-life (t1/2)
Excerpt: MLM Stability Pooled MLM from male CD-1 mice (BIOIVT M00501) were used.

in vitro [4] = type: in vitro ADME, rat; settings: RLM (male Sprague-Dawley) 0.50 mg/mL, NADPH 1 mM, 1 μM compound, pH 7.4, 37° C., 60 min; for microsomal CLint / half-life: rat, microsomes; for microsomal CLint: read-out: Intrinsic clearance (Clint); for half-life: read-out: half-life (t1/2)
Excerpt: RLM Stability Pooled RLM from male Sprague-Dawley rats (Xenotech R1000) were used.

5-HT2A receptor [5] = molecular target: T4, 5-HT2A receptor; test: cell-based; type: cell-based; design: expressed in transfected cells; host or cells: HEK293, stably transfected; settings: Ca2+ flux; for Emax: HEK293, agonist, HEK293, max dose, read-out: 5-HT2A % Act @ Max Dose; for EC50: agonist, HEK293
Summary of the method: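 Receptor agonism was assessed as intracellular calcium mobilization in stably transfected cells, with CHO cells additionally carrying Gα15 for the 5-HT1A readout. Calcium was monitored with Fluo-4 Direct dye.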

5-HT2A receptor [6] = molecular target: T4, 5-HT2A receptor; test: biochemical; type: binding; design: expressed in transfected cells; host or cells: HEK293, stably transfected; settings: [3H]ketanserin 1 nM; HEK293 stable cell line; 1 h, 25 °C
Summary of the method: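 Binding affinity comes from a [^3H]ketanserin radioligand assay run under literature-adapted conditions.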

T4 sequence (P28223 whole entry, the tested form may be a part): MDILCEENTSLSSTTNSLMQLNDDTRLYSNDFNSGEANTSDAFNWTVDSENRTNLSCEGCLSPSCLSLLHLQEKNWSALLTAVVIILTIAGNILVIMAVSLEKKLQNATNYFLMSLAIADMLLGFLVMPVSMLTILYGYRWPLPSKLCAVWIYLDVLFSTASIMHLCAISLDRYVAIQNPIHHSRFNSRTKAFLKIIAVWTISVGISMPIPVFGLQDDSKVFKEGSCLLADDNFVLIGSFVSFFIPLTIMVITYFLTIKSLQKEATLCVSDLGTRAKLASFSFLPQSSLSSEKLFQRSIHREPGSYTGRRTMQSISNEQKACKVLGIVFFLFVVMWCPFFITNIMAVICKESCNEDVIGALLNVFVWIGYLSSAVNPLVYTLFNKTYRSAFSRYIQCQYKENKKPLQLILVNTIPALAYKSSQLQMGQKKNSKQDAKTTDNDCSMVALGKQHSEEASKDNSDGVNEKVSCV
T1 sequence (P41595 whole entry): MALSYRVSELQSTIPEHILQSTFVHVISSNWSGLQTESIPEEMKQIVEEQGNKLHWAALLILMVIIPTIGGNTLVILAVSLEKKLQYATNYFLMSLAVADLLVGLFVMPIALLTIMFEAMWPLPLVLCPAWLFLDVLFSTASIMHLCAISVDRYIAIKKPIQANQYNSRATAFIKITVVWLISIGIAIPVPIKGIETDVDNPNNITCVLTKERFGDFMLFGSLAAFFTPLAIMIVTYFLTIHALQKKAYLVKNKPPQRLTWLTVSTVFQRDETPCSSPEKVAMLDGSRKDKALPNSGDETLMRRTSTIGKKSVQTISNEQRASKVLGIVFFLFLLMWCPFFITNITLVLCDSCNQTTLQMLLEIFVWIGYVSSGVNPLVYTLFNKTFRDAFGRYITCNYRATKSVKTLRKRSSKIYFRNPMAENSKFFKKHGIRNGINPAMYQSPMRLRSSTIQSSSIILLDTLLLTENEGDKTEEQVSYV

Row | Compound | Emax (5-HT2B receptor) [%] | Emax (5-HT2C receptor) [%] | Emax (5-HT1A receptor) [%] | Emax (5-HT2A receptor [1]) [%] | half-life (t1/2) (in vitro [2]) [min] | half-life (t1/2) (in vitro [3]) [min] | half-life (t1/2) (in vitro [4]) [min] | Emax (5-HT2A receptor [5]) [%] | EC50 (5-HT2B receptor) [nM] | EC50 (5-HT2C receptor) [nM] | EC50 (5-HT1A receptor) [nM] | microsomal CLint (in vitro [2]) [µL/min/mg] | half-life (in vitro [2]) [min] | microsomal CLint (in vitro [3]) [µL/min/mg] | half-life (in vitro [3]) [min] | microsomal CLint (in vitro [4]) [µL/min/mg] | half-life (in vitro [4]) [min] | Ki (5-HT2A receptor [6]) [nM] | EC50 (5-HT2A receptor [5]) [nM]
1 | CCN(CC)C(=O)[C@H]1C=C2c3cccc4[nH]cc(c34)C[C@H]2N(CCCF)C1 [Compound 2a, (6aR,9S)—N,N-diethyl-7-(3-fluoropropyl)-4,6,6a,7,8,9-hexahydroindolo[4,3-fg]quinoline-9-carboxamide] | 40.1 | 119 | 96.8 | 83.3 | 17.018 | 1.776 | 9.673 | 90.3 |  |  |  |  |  |  |  |  |  |  | 
2 | CCCN1C[C@@H](C(=O)N[C@H](C)CC)C=C2c3cccc4[nH]cc(c34)C[C@H]21 [Compound 3a, (6aR,9S)—N—((R)-sec-butyl)-7-propyl-4,6,6a,7,8,9-hexahydroindolo[4,3-fg]quinoline-9-carboxamide] | 52.8 | 109 | 108 | 113 | 2.2 | 0.6 | 1.4 | 92 |  |  |  |  |  |  |  |  |  |  | 
3 | CC[C@@H](C)NC(=O)[C@H]1C=C2c3cccc4[nH]cc(c34)C[C@H]2N(CC)C1 [Compound 5a, (6aR,9S)—N—((R)-sec-butyl)-7-ethyl-4,6,6a,7,8,9-hexahydroindolo[4,3-fg]quinoline-9-carboxamide] | 43.7 | 99.4 | 112 | 62.4 | 5.5 | 1.7 | 3.1 | 89.6 |  |  |  |  |  |  |  |  |  |  | 
4 | C=CCN1C[C@@H](C(=O)N[C@H](C)CC)C=C2c3cccc4[nH]cc(c34)C[C@H]21 [Compound 8a, (6aR,9S)-7-allyl-N—((R)-sec-butyl)-4,6,6a,7,8,9-hexahydroindolo[4,3-fg]quinoline-9-carboxamide] | 35.7 | 13.3 | 90.3 | 81.1 | 3.4 | 0.8 | 1.7 | 87.5 |  |  |  |  |  |  |  |  |  |  | 
5 | CCN(CC)C(=O)[C@@H]1C=C2c3cccc4[nH]cc(c34)C[C@H]2N(Cc2cccc(F)c2)C1 [Compound 52, (6aR,9R)—N,N-diethyl-7-(3-fluorobenzyl)-4,6,6a,7,8,9-hexahydroindolo[4,3-fg]quinoline-9-carboxamide] | 4.22 | 14.5 | 93 |  |  |  |  | 81.7 | > 10000 | > 10000 | 7990 | 77.9 | 17.8 | 338 | 4.1 | 302 | 4.6 | 5.39 | 469
6 | CCN(CC)C(=O)[C@@H]1C=C2c3cccc4[nH]cc(c34)C[C@H]2N(Cc2ccc(F)c(F)c2)C1 [Compound 54, (6aR,9R)-7-(3,4-difluorobenzyl)-N,N-diethyl-4,6,6a,7,8,9-hexahydroindolo[4,3-fg]quinoline-9-carboxamide] | 0.91 | 8.36 | 51 |  |  |  |  | 59.2 | > 10000 | > 10000 | > 100000 | 73.9 | 18.7 | 242 | 5.7 | 110 | 12.6 | 5.4 | 1870
7 | CCN(CC)C(=O)[C@@H]1C=C2c3cccc4[nH]cc(c34)C[C@H]2N(Cc2ccc(C)cc2)C1 [Compound 97, (6aR,9R)—N,N-diethyl-7-(4-methylbenzyl)-4,6,6a,7,8,9-hexahydroindolo[4,3-fg]quinoline-9-carboxamide] |  |  | 84.5 |  |  |  |  |  | 16.6 | 4.06 | > 100000 | 63.5 | 21.8 | 511 | 2.7 | 532 | 2.6 | 23.1 | 23.1
